Experimental data reported in article PMC9862751, “Identifying Dopamine D3 Receptor Ligands through Virtual Screening and Exploring the Binding Modes of Hit Compounds” (Molecules, 2023).

Target: human D3R (Homo sapiens, UniProt P35462)
Experiment: [3H]-spiperone filtration binding assay on membranes from CHO–hDRD3 cells
Conditions: for inhibition at 10 µM: read-out: Inhibition Rate at 10 µM
Protocol: CHO-K1 cells expressing human D3R (CHO–hDRD3; HD Euroscreen Fast, Brussels, Belgium) were homogenized in 4× v/w buffer (15 mM Tris, 2 mM MgCl2, 0.3 mM EDTA, 1 mM EGTA, pH = 7.4 at 25 °C) with a Dounce tissue grinder and centrifuged at 40,000× g at 4 °C for 25 min. The supernatant was removed, and the pellet was resuspended in 4× v/w buffer and recentrifuged. […] The preparations were then aliquoted and stored at −70 °C [11].
The aliquoted membranes were thawed and washed once in binding buffer (50 mM Tris HCl, 5 mM MgCl2, 5 mM KCl, 1 mM CaCl2, 120 mM NaCl, and 1mM EDTA). […] The incubations were carried out for 120 min at 25 °C in 250 µL in individual wells of a 96-well deep-well plate. […] Non-specific binding was determined in the presence of 10 mM haloperidol. After incubation, the samples were filtered over UniFilter GF/B^TM using PerkinElmer Harvester and washed with 4 × 1 mL ice-cold binding buffer. The plate was dried at 40 °C for 1 h and 40 µL MicroScint scintillation cocktail (PerkinElmer) was added to each well. […] Specific radioligand binding was defined as the difference between total binding and non-specific binding determined in the presence of excess haloperidol. Inhibition percentage (%) = (total binding counts − test compounds binding counts)/(total binding counts—non-specific binding counts) [11].

Sequence of human D3R (P35462 whole entry): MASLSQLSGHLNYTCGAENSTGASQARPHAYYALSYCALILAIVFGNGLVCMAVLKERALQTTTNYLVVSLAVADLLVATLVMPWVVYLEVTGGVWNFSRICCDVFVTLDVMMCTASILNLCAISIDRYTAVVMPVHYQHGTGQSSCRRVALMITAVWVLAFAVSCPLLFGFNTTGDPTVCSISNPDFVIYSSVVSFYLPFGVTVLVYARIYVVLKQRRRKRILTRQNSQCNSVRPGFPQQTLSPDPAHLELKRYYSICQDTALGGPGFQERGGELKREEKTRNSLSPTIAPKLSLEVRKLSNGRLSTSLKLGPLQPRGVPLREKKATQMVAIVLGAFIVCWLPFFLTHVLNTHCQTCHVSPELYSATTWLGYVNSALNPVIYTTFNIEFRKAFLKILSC

IC50 [nM] | inhibition at 10 µM [%] | Inhibition Rate at 10 µM (10 µM test compound, displacement of [3H]-spiperone) [%] | Structure (SMILES)
1250 | 99.3 | – | Cc1ccc(-c2c3c(=O)n(C)c(=O)n(C)c3c3n2C(C)(C)CO[C@H]3c2ccc(C)cc2O)cc1 [Compound D280-0447]
1480 | 93.6 | – | Cc1nc(Nc2ccc(NC(=O)Nc3ccc4c(c3)OCCO4)cc2)cc(NC2CCCCC2)n1 [Compound D638-0102]
970 | 96.9 | – | Cc1ccc(SCc2nc(-c3ccc(C(=O)Nc4ccc5c(c4)OCO5)cc3)oc2C)cc1 [Compound E776-0059]
1410 | 99.5 | – | Cc1ccc(CNC(=O)c2ccc3c(=O)n(-c4ccc(C)cc4)c(N4CCCC4)nc3c2)cc1 [Compound F072-0905]
– | – | 74.8 | Cc1oc(-c2ccc(C(=O)NCc3ccccc3)cc2)nc1CN1CCc2ccccc21 [Compound G373-0280]
1490 | 94.8 | – | Cc1cc(N2CCC(C(=O)N[C@@H]3CCCc4ccccc43)CC2)n2nc(-c3ccccc3)cc2n1 [Compound L227-1012]
